Key:
[1] = molecular target: SHP-2 full length protein (Homo sapiens (Human), UniProt Q06124); experiment: SHP-2 biochemical DiFMUP pseudosubstrate-fluorogenic assay; details: 0.2 nM SHP-2, 1 μM IRS-1 activator peptide, 50 μM DiFMUP; read-out: SHP2 IC50
Outline: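 In-house recombinant full-length SHP-2 preincubated 90 min at room temperature with compounds (1:3 series, 10,000–0.005 nM), then DiFMUP substrate added at 50 μM final for 30 min more. Fluorescence normalised to DMSO wells (100%) and IC50 derived by curve fitting.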

NCI-H358 cells = experiment: NCI-H358 3D tumor spheroid growth inhibition; type: cell-based; details: Homo sapiens, NCI-H358, 168 h, 3D spheroids, 7 days, 3D CellTiter Glo; cellular IC50 designated EC50; read-out: H358 EC50
Outline: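 Cells seeded at 1000/well in ultra-low-attachment plates at 37 °C, 5% CO2 to form spheroids, then incubated a further 7 days with compounds. Viability by 3D CellTiter Glo luminescence; % inhibition versus DMSO wells, with normalized cellular IC50 reported as EC50.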

Row | Structure (SMILES) | IC50 [1] [nM] | EC50 (NCI-H358 cells) [nM]
1 | Cc1nccc(Sc2cnc(N3CCC4(CCC[C@H]4N)CC3)n3ccnc23)c1C [Example 80, (R)-8-(8-((2,3-dimethylpyridin-4-yl)thio)imidazo[1,2-c]pyrimidin-5-yl)-8-azaspiro[4.5]decan-1-amine] | 28 | 270
2 | Cc1c(Sc2cnc(N3CCC4(CCC[C@H]4N)CC3)n3ccnc23)ccnc1Cl [Example 81, (R)-8-(8-((2-chloro-3-methylpyridin-4-yl)thio)imidazo[1,2-c]pyrimidin-5-yl)-8-azaspiro[4.5]decan-1-amine] | 7.2 | 82
3 | N[C@@H]1CCCC12CCN(c1ncc(Sc3ccnc4c3CCCC4)c3nccn13)CC2 [Example 82, (R)-8-(8-((5,6,7,8-tetrahydroquinolin-4-yl)thio)imidazo[1,2-c]pyrimidin-5-yl)-8-azaspiro[4.5]decan-1-amine] | 11 | 125
4 | N[C@@H]1CCCC12CCN(c1ncc(Sc3cccn4cnnc34)c3nccn13)CC2 [Example 83, (R)-8-(8-([1,2,4]triazolo[4,3-a]pyridin-8-ylthio)imidazo[1,2-c]pyrimidin-5-yl)-8-azaspiro[4.5]decan-1-amine] | 150 | > 12500
5 | N[C@@H]1c2ccccc2CC12CCN(c1ncc(Sc3cccc(Cl)c3Cl)c3nccn13)CC2 [Example 85, (S)-1′-(8-((2,3-dichlorophenyl)thio)imidazo[1,2-c]pyrimidin-5-yl)-1,3-dihydrospiro[indene-2,4′-piperidin]-1-amine] | 2.1 | 11
6 | N[C@H]1c2ccccc2CC12CCN(c1ncc(Sc3cccc(Cl)c3Cl)c3nccn13)CC2 [Example 86, (R)-1′-(8-((2,3-dichlorophenyl)thio)imidazo[1,2-c]pyrimidin-5-yl)-1,3-dihydrospiro[indene-2,4′-piperidin]-1-amine] | 250 | 350
7 | N#Cc1cccc2c(Sc3cnc(N4CCC5(CCC[C@H]5N)CC4)n4ccnc34)ccnc12 [Example 88, (R)-4-((5-(1-amino-8-azaspiro[4.5]decan-8-yl)imidazo[1,2-c]pyrimidin-8-yl)thio)quinoline-8-carbonitrile] | 18 | 160
8 | N[C@@H]1CCCC12CCN(c1ncc(Sc3cc(=O)[nH]c4ccccc34)c3nccn13)CC2 [Example 89, (R)-4-((5-(1-amino-8-azaspiro[4.5]decan-8-yl)imidazo[1,2-c]pyrimidin-8-yl)thio)quinolin-2(1H)-one] | > 10000 | > 12500
9 | N[C@@H]1CCCC12CCN(c1ncc(Sc3ccnc4ncccc34)c3nccn13)CC2 [Example 90, (R)-8-(8-((1,8-naphthyridin-4-yl)thio)imidazo[1,2-c]pyrimidin-5-yl)-8-azaspiro[4.5]decan-1-amine] | 37 | 410
10 | C[C@H](N)C1CCN(c2ncc(Sc3cccc(Cl)c3Cl)c3nccn23)CC1 [Example 91, (S)-1-(1-(8-((2,3-dichlorophenyl)thio)imidazo[1,2-c]pyrimidin-5-yl)piperidin-4-yl)ethan-1-amine] | 170 | 2000
11 | C[C@@H]1OCC2(CCN(c3ncc(Sc4cc(=O)n(C)c5ccccc45)c4nccn34)CC2)[C@@H]1N [Example 92, 4-((5-((3S,4S)-4-amino-3-methyl-2-oxa-8-azaspiro[4.5]decan-8-yl)imidazo[1,2-c]pyrimidin-8-yl)thio)-1-methylquinolin-2(1H)-one] | > 10000 | > 12500
12 | C[C@@H]1OCC2(CCN(c3ncc(Sc4cncc5ccccc45)c4nccn34)CC2)[C@@H]1N [Example 93, (3S,4S)-3-methyl-8-(8-(isoquinolin-4-ylthio)imidazo[1,2-c]pyrimidin-5-yl)-2-oxa-8-azaspiro[4.5]decan-4-amine] | 480 | > 12500
13 | C[C@@H](N)C1CCN(c2ncc(Sc3cccc(Cl)c3Cl)c3nccn23)CC1 [Example 94, (R)-1-(1-(8-((2,3-dichlorophenyl)thio)imidazo[1,2-c]pyrimidin-5-yl)piperidin-4-yl)ethan-1-amine] | 170 | 1000
14 | C[C@@H]1OCC2(CCN(c3ncc(Sc4ccnc5c4CCC5)c4nccn34)CC2)[C@@H]1N [Example 97, (3S,4S)-8-(8-((6,7-dihydro-5H-cyclopenta[b]pyridin-4-yl)thio)imidazo[1,2-c]pyrimidin-5-yl)-3-methyl-2-oxa-8-azaspiro[4.5]decan-4-amine] | 11 | 110
15 | C[C@@H]1OCC2(CCN(c3ncc(Sc4ccnc5c(Br)cccc45)c4nccn34)CC2)[C@@H]1N [Example 103] | 4.6 | 150
16 | C[C@@H]1OCC2(CCN(c3ncc(Sc4ccnc5c(N)cccc45)c4nccn34)CC2)[C@@H]1N [Example 104, (3S,4S)-8-(8-((8-aminoquinolin-4-yl)thio)imidazo[1,2-c]pyrimidin-5-yl)-3-methyl-2-oxa-8-azaspiro[4.5]decan-4-amine] | 4.2 | 74

Second part, the compound after the results:

Row | IC50 [1] [nM] | EC50 (NCI-H358 cells) [nM] | Structure (SMILES)
17 | 5.2 | 95 | C[C@@H]1OCC2(CCN(c3ncc(Sc4cccc5ncsc45)c4nccn34)CC2)[C@@H]1N [Example 95, (3S,4S)-8-(8-(benzo[d]thiazol-7-ylthio)imidazo[1,2-c]pyrimidin-5-yl)-3-methyl-2-oxa-8-azaspiro[4.5]decan-4-amine]
18 | 4.1 | 97 | C[C@@H]1OCC2(CCN(c3ncc(Sc4cccc5c(C=O)csc45)c4nccn34)CC2)[C@@H]1N [Example 96, 7-((5-((3S,4S)-4-amino-3-methyl-2-oxa-8-azaspiro[4.5]decan-8-yl)imidazo[1,2-c]pyrimidin-8-yl)thio)benzo[b]thiophene-3-carbaldehyde]
19 | 16 | 250 | C[C@@H]1OCC2(CCN(c3ncc(Sc4cccn5nccc45)c4nccn34)CC2)[C@@H]1N [Example 98, (3S,4S)-3-methyl-8-(8-(pyrazolo[1,5-a]pyridin-4-ylthio)imidazo[1,2-c]pyrimidin-5-yl)-2-oxa-8-azaspiro[4.5]decan-4-amine]
20 | 4.1 | 96 | C[C@@H]1OCC2(CCN(c3ncc(Sc4cccc5ccsc45)c4nccn34)CC2)[C@@H]1N [Example 99, (3S,4S)-8-(8-(benzo[b]thiophen-7-ylthio)imidazo[1,2-c]pyrimidin-5-yl)-3-methyl-2-oxa-8-azaspiro[4.5]decan-4-amine]
21 | 6.7 | 140 | C[C@@H]1OCC2(CCN(c3ncc(Sc4cccc5nc(N)sc45)c4nccn34)CC2)[C@@H]1N [Example 100, (3S,4S)-8-(8-((2-aminobenzo[d]thiazol-7-yl)thio)imidazo[1,2-c]pyrimidin-5-yl)-3-methyl-2-oxa-8-azaspiro[4.5]decan-4-amine]
22 | 5.7 | 84 | CSc1ccccc1Sc1cnc(N2CCC3(CC2)CO[C@@H](C)[C@H]3N)n2ccnc12 [Example 101, (3S,4S)-3-methyl-8-(8-((2-(methylthio)phenyl)thio)imidazo[1,2-c]pyrimidin-5-yl)-2-oxa-8-azaspiro[4.5]decan-4-amine]
23 | 4 | 66 | C[C@@H]1OCC2(CCN(c3ncc(Sc4ccnc5sccc45)c4nccn34)CC2)[C@@H]1N [Example 102, (3S,4S)-3-methyl-8-(8-(thieno[2,3-b]pyridin-4-ylthio)imidazo[1,2-c]pyrimidin-5-yl)-2-oxa-8-azaspiro[4.5]decan-4-amine]

Source: patent publication US11179397B2, “Imidazopyrimidine derivatives” (Gilead Sciences, Inc., priority 2018, dated 2021)
